Reference: US6355799B1, “Substituted benzene compounds, process for their preparation, and herbicidal and defoliant compositions containing them” (ISK Americas Incorporated, priority 1997, dated 2002)

Columns and labels:
Format in all cases: in vivo
[1] = system: redroot pigweed (Amaranthus retroflexus, AMARE); experiment: Pre-emerge test, greenhouse herbicide activity screening; conditions: pre-emerge, phytotoxicity rating 0-100 at 14 days after application
Procedure, shortened: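 Compounds in acetone were track-sprayed at 187 l/ha, 15–1000 g ai/ha, onto sandy loam pots. Pre-emerge seeds were sown one day before spraying, with surface watering afterwards. Post-emerge plants were at the 2–3 leaf stage and sprayed with 0.25% v/v non-ionic surfactant. Injury was rated 0–100 at 14 days.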

[2] = system: barnyardgrass (Echinochloa crus-galli, ECHCG); experiment: as above; conditions: pre-emerge, phytotoxicity rating 0-100 at 14 days after application
Procedure, shortened: (§1)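 Plants grown in 10 cm pots of sandy loam mix received acetone-dissolved compounds through a moving flat-fan nozzle. Doses ranged from 15 to 1000 g ai/ha. Pre-emerge pots were seeded one day earlier, post-emerge pots 8–21 days earlier. Fourteen days on, each pot was graded 0–100 for damage.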

[3] = system: green foxtail (Setaria viridis, SETVI); experiment: as above; conditions: pre-emerge, phytotoxicity rating 0-100 at 14 days after application
Procedure, shortened: as §1

[4] = system: ivyleaf morningglory (Ipomoea hederacea, IPOHE); experiment: as above; conditions: pre-emerge, phytotoxicity rating 0-100 at 14 days after application
Procedure, shortened: as §1

[5] = system: johnsongrass (Sorghum halepense, SORHA); experiment: as above; conditions: pre-emerge, phytotoxicity rating 0-100 at 14 days after application
Procedure, shortened: as §1

[6] = system: lambsquarters (Chenopodium album, CHEAL); experiment: as above; conditions: pre-emerge, phytotoxicity rating 0-100 at 14 days after application
Procedure, shortened: as §1

[7] = system: large crabgrass (Digitaria sanguinalis, DIGSA); experiment: as above; conditions: pre-emerge, phytotoxicity rating 0-100 at 14 days after application
Procedure, shortened: as §1

[8] = system: sicklepod (Cassia obtusifolia, CASOB); experiment: as above; conditions: pre-emerge, phytotoxicity rating 0-100 at 14 days after application
Procedure, shortened: as §1

[9] = system: velvetleaf (Abutilon theophrasti, ABUTH); experiment: as above; conditions: pre-emerge, phytotoxicity rating 0-100 at 14 days after application
Procedure, shortened: as §1

[10] = system: field corn (Zea mays L., var. Dekalb 535, CORN); experiment: Pre-emerge test, crop safety; conditions: crop damage, pre-emerge, phytotoxicity rating 0-100 at 14 days after application
Procedure, shortened: (§2)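 Herbicidal damage is scored 0 (none) to 100 (complete plant death) two weeks after a simulated field spray. Rates span 15–1000 g ai/ha, delivered in acetone at 187 l/ha. For post-emergence treatments, plants have 2–3 leaves and the spray carries 0.25% v/v non-ionic surfactant.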

[11] = system: upland rice (Oryza sp., var. Tebonnet, RICE); experiment: Pre-emerge test, crop safety; conditions: crop damage, pre-emerge, phytotoxicity rating 0-100 at 14 days after application
Procedure, shortened: as §2

[12] = system: barnyardgrass (Echinochloa crus-galli, ECHCG); experiment: Post-emerge test, greenhouse herbicide activity screening; conditions: post-emerge, phytotoxicity rating 0-100 at 14 days after application
Procedure, shortened: (§3)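 Fourteen days after spraying, crop and weed injury was graded visually from 0, no effect, to 100, every plant dead. Test substances were dissolved in acetone and applied at 15–1000 g ai/ha with a flat-fan nozzle. Application was either pre-emergence, one day after sowing, or post-emergence at the 2–3 leaf stage.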

[13] = system: green foxtail (Setaria viridis, SETVI); experiment: as above; conditions: post-emerge, phytotoxicity rating 0-100 at 14 days after application
Procedure, shortened: as §3

[14] = system: ivyleaf morningglory (Ipomoea hederacea, IPOHE); experiment: as above; conditions: post-emerge, phytotoxicity rating 0-100 at 14 days after application
Procedure, shortened: as §3

[15] = system: lambsquarters (Chenopodium album, CHEAL); experiment: as above; conditions: post-emerge, phytotoxicity rating 0-100 at 14 days after application
Procedure, shortened: as §3

[16] = system: large crabgrass (Digitaria sanguinalis, DIGSA); experiment: as above; conditions: post-emerge, phytotoxicity rating 0-100 at 14 days after application
Procedure, shortened: as §3

[17] = system: redroot pigweed (Amaranthus retroflexus, AMARE); experiment: as above; conditions: post-emerge, phytotoxicity rating 0-100 at 14 days after application
Procedure, shortened: as §3

[18] = system: sicklepod (Cassia obtusifolia, CASOB); experiment: as above; conditions: post-emerge, phytotoxicity rating 0-100 at 14 days after application
Procedure, shortened: as §3

[19] = system: velvetleaf (Abutilon theophrasti, ABUTH); experiment: as above; conditions: post-emerge, phytotoxicity rating 0-100 at 14 days after application
Procedure, shortened: as §3

[20] = system: field corn (Zea mays L., var. Dekalb 535, CORN); experiment: Post-emerge test, crop safety; conditions: post-emerge, crop damage rating 0-100 at 14 days after application
Procedure, shortened: (§4)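 Each test used a mechanized track sprayer delivering 187 l/ha of acetone solution at 15–1000 g ai/ha. Post-emerge foliage at 2–3 leaves was treated with added 0.25% v/v non-ionic surfactant and bottom-watered only. Injury was assessed on day 14, where 100 means total kill.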

[21] = system: upland rice (Oryza sp., var. Tebonnet, RICE); experiment: Post-emerge test, crop safety; conditions: post-emerge, crop damage rating 0-100 at 14 days after application
Procedure, shortened: as §4

In the case of `COc1c(Cl)cc(F)c(-n2nnn(CCCF)c2=O)c1NC(=O)c1ccc2ccccc2c1` [Compound 5-26], the “Pre-emerge Herbicidal Activity AMARE” value ([1]; rate 63 g ai/ha) is reported as 100, the “Pre-emerge Herbicidal Activity AMARE” value ([1]; rate 250 g ai/ha) is reported as 100 and the “Pre-emerge Herbicidal Activity ECHCG” value ([2]; rate 63 g ai/ha) is reported as 20. The “Pre-emerge Herbicidal Activity ECHCG” value ([2]; rate 250 g ai/ha) was 30, the “Pre-emerge Herbicidal Activity SETVI” value ([3]; rate 63 g ai/ha) was 60 and the “Pre-emerge Herbicidal Activity SETVI” value ([3]; rate 250 g ai/ha) was 90. The “Pre-emerge Herbicidal Activity IPOHE” value ([4]; rate 63 g ai/ha) was 0, the “Pre-emerge Herbicidal Activity IPOHE” value ([4]; rate 250 g ai/ha) was 40 and the “Pre-emerge Herbicidal Activity SORHA” value ([5]; rate 63 g ai/ha) was 0. The “Pre-emerge Herbicidal Activity SORHA” value ([5]; rate 250 g ai/ha) was 30, the “Pre-emerge Herbicidal Activity CHEAL” value ([6]; rate 63 g ai/ha) was 100 and the “Pre-emerge Herbicidal Activity CHEAL” value ([6]; rate 250 g ai/ha) was 100. For the same compound, the “Pre-emerge Herbicidal Activity DIGSA” value ([7]; rate 63 g ai/ha) was 30, the “Pre-emerge Herbicidal Activity DIGSA” value ([7]; rate 250 g ai/ha) was 80 and the “Pre-emerge Herbicidal Activity CASOB” value ([8]; rate 63 g ai/ha) was 10. For the same compound, the “Pre-emerge Herbicidal Activity CASOB” value ([8]; rate 250 g ai/ha) was 80, the “Pre-emerge Herbicidal Activity ABUTH” value ([9]; rate 63 g ai/ha) was 70 and the “Pre-emerge Herbicidal Activity ABUTH” value ([9]; rate 250 g ai/ha) was 100. For the same compound, the “Pre-emerge Herbicidal Activity CORN” value ([10]; rate 63 g ai/ha) was 0, the “Pre-emerge Herbicidal Activity CORN” value ([10]; rate 250 g ai/ha) was 0 and the “Pre-emerge Herbicidal Activity RICE” value ([11]; rate 63 g ai/ha) was 15. For the same compound, the “Pre-emerge Herbicidal Activity RICE” value ([11]; rate 250 g ai/ha) was 40, the “Post-emerge Herbicidal Activity ECHCG” value ([12]; 63 g ai/ha) was 20 and the “Post-emerge Herbicidal Activity ECHCG” value ([12]; 250 g ai/ha) was 60. The “Post-emerge Herbicidal Activity SETVI” value ([13]; 63 g ai/ha) was 40, the “Post-emerge Herbicidal Activity SETVI” value ([13]; 250 g ai/ha) was 70 and the “Post-emerge Herbicidal Activity IPOHE” value ([14]; 63 g ai/ha) was 90. For the same compound, the “Post-emerge Herbicidal Activity IPOHE” value ([14]; 250 g ai/ha) was 70, the “Post-emerge Herbicidal Activity CHEAL” value ([15]; 63 g ai/ha) was 100 and the “Post-emerge Herbicidal Activity CHEAL” value ([15]; 250 g ai/ha) was 100. For the same compound, the “Post-emerge Herbicidal Activity DIGSA” value ([16]; 63 g ai/ha) was 20, the “Post-emerge Herbicidal Activity DIGSA” value ([16]; 250 g ai/ha) was 30 and the “Post-emerge Herbicidal Activity AMARE” value ([17]; 63 g ai/ha) was 100. For the same compound, the “Post-emerge Herbicidal Activity AMARE” value ([17]; 250 g ai/ha) was 90, the “Post-emerge Herbicidal Activity CASOB” value ([18]; 63 g ai/ha) was 90 and the “Post-emerge Herbicidal Activity CASOB” value ([18]; 250 g ai/ha) was 100. For the same compound, the “Post-emerge Herbicidal Activity ABUTH” value ([19]; 63 g ai/ha) was 100, the “Post-emerge Herbicidal Activity ABUTH” value ([19]; 250 g ai/ha) was 100 and the “Post-emerge Herbicidal Activity CORN” value ([20]; 63 g ai/ha) was 10. For the same compound, the “Post-emerge Herbicidal Activity CORN” value ([20]; 250 g ai/ha) was 5, the “Post-emerge Herbicidal Activity RICE” value ([21]; 63 g ai/ha) was 50 and the “Post-emerge Herbicidal Activity RICE” value ([21]; 250 g ai/ha) was 60.
In the case of `O=C(Nc1cc(Cl)ccc1-n1c(=O)n2n(c1=S)CCCC2)c1ccc2ccccc2c1` [9-14], the “Pre-emerge Herbicidal Activity AMARE” value ([1]; rate 63 g ai/ha) is reported as 40, the “Pre-emerge Herbicidal Activity AMARE” value ([1]; rate 250 g ai/ha) is reported as 65 and the “Pre-emerge Herbicidal Activity ECHCG” value ([2]; rate 63 g ai/ha) is reported as 0. The “Pre-emerge Herbicidal Activity ECHCG” value ([2]; rate 250 g ai/ha) was 40, the “Pre-emerge Herbicidal Activity SETVI” value ([3]; rate 63 g ai/ha) was 0 and the “Pre-emerge Herbicidal Activity SETVI” value ([3]; rate 250 g ai/ha) was 30. The “Pre-emerge Herbicidal Activity IPOHE” value ([4]; rate 63 g ai/ha) was 0, the “Pre-emerge Herbicidal Activity IPOHE” value ([4]; rate 250 g ai/ha) was 10 and the “Pre-emerge Herbicidal Activity SORHA” value ([5]; rate 63 g ai/ha) was 0. The “Pre-emerge Herbicidal Activity SORHA” value ([5]; rate 250 g ai/ha) was 10, the “Pre-emerge Herbicidal Activity CHEAL” value ([6]; rate 63 g ai/ha) was 80 and the “Pre-emerge Herbicidal Activity CHEAL” value ([6]; rate 250 g ai/ha) was 100. The “Pre-emerge Herbicidal Activity DIGSA” value ([7]; rate 63 g ai/ha) was 0, the “Pre-emerge Herbicidal Activity DIGSA” value ([7]; rate 250 g ai/ha) was 30 and the “Pre-emerge Herbicidal Activity CASOB” value ([8]; rate 63 g ai/ha) was 0. For the same compound, the “Pre-emerge Herbicidal Activity CASOB” value ([8]; rate 250 g ai/ha) was 0, the “Pre-emerge Herbicidal Activity ABUTH” value ([9]; rate 63 g ai/ha) was 20 and the “Pre-emerge Herbicidal Activity ABUTH” value ([9]; rate 250 g ai/ha) was 85. For the same compound, the “Pre-emerge Herbicidal Activity CORN” value ([10]; rate 63 g ai/ha) was 0, the “Pre-emerge Herbicidal Activity CORN” value ([10]; rate 250 g ai/ha) was 0 and the “Pre-emerge Herbicidal Activity RICE” value ([11]; rate 63 g ai/ha) was 0. The “Pre-emerge Herbicidal Activity RICE” value ([11]; rate 250 g ai/ha) was 10, the “Post-emerge Herbicidal Activity ECHCG” value ([12]; 63 g ai/ha) was 0 and the “Post-emerge Herbicidal Activity ECHCG” value ([12]; 250 g ai/ha) was 10. The “Post-emerge Herbicidal Activity SETVI” value ([13]; 63 g ai/ha) was 10, the “Post-emerge Herbicidal Activity SETVI” value ([13]; 250 g ai/ha) was 20 and the “Post-emerge Herbicidal Activity IPOHE” value ([14]; 63 g ai/ha) was 80. For the same compound, the “Post-emerge Herbicidal Activity IPOHE” value ([14]; 250 g ai/ha) was 90, the “Post-emerge Herbicidal Activity CHEAL” value ([15]; 63 g ai/ha) was 95 and the “Post-emerge Herbicidal Activity CHEAL” value ([15]; 250 g ai/ha) was 100. The “Post-emerge Herbicidal Activity DIGSA” value ([16]; 63 g ai/ha) was 0, the “Post-emerge Herbicidal Activity DIGSA” value ([16]; 250 g ai/ha) was 10 and the “Post-emerge Herbicidal Activity AMARE” value ([17]; 63 g ai/ha) was 85. For the same compound, the “Post-emerge Herbicidal Activity AMARE” value ([17]; 250 g ai/ha) was 100, the “Post-emerge Herbicidal Activity CASOB” value ([18]; 63 g ai/ha) was 40 and the “Post-emerge Herbicidal Activity CASOB” value ([18]; 250 g ai/ha) was 40. For the same compound, the “Post-emerge Herbicidal Activity ABUTH” value ([19]; 63 g ai/ha) was 100, the “Post-emerge Herbicidal Activity ABUTH” value ([19]; 250 g ai/ha) was 100 and the “Post-emerge Herbicidal Activity CORN” value ([20]; 63 g ai/ha) was 15. The “Post-emerge Herbicidal Activity CORN” value ([20]; 250 g ai/ha) was 50, the “Post-emerge Herbicidal Activity RICE” value ([21]; 63 g ai/ha) was 0 and the “Post-emerge Herbicidal Activity RICE” value ([21]; 250 g ai/ha) was 40.
